# Measurements published in publication PMC8282797, “Strictly regulated agonist-dependent activation of AMPA-R is the key characteristic of TAK-653 for robust synaptic responses and cognitive improvement” (Scientific Reports, 2021).
# Assays:
# [1] = tested on: MK-801-induced working memory deficit in rats; experiment: Radial arm maze (RAM) test, MK-801-induced working memory deficit; assay type: in vivo, rat; details: given 0.5 h before MK-801 0.08 mg/kg, s.c.
# Procedure: RAM tests were performed using 9-week-old male Long-Evans rats as previously described with a minor modification. Each arm was 50 cm long, 10 cm wide and 40 cm high, and the maze was elevated 50 cm above the floor. Long-Evans rats were food-restricted to 85% of free-feeding body weight throughout the experimental period. Rats were well trained to collect pellets placed on the edge of each arm. The learning criterion for the testing session was defined as 2 errors or fewer for 2 consecutive days. In the testing session, each rat was placed on the maze facing the fixed arm at the start of the trial. The entry of rats into each arm was recorded in sequence until all pellets in the 8 arms were consumed, or 5 min had elapsed. […] Thirty min after dosing of vehicle or MK-801, rats were placed on the maze. Details are described in the Supplementary Information.
# The experiment was performed using 9-week-old male Long-Evans rats as described previously (Zajaczkowski et al., 1996) with a minor modification. Each arm was 50 cm long, 10 cm wide and 40 cm high, and the maze was elevated 50 cm above the floor. After being fasted for 24 h, male Long-Evans rats were food-restricted to 85% of free-feeding body weight on the first day of exposure to the maze and throughout the experimental period. The experiment consists of two sessions, training and testing session. In the training session, rats were habituated to the maze and then trained. Reinforcement consisted of 3 food pellets (45 mg each) in the food cup was used. On the first day of habituation to the maze, reinforcements were placed near the entrance and at the mid-point of each arm. Three rats were placed on the maze at one time and allowed to explore and consume the pellets for 8 min. On the second day of habituation, each rat was placed on the maze and allowed 5 min to consume the pellets placed at the mid-point and in the food cup at the end of each arm. From the third day, reinforcement was placed in the food cup at the end of each arm. Rats were well trained to collect pellets placed on the edge of each arm. The learning criterion for the testing session was defined as 2 errors or less for two consecutive days. In the previous day of the testing session, baseline level of performance was qualified to confirm that rats completed collecting all pellets placed in the 8 arms with two errors or less. In the testing session, each rat was placed on the maze facing away from the experimenter and facing the fixed arm at the start of the trial. The entry of rats into each arm was recorded in sequence. Rats were allowed to explore until all pellets in the 8 arms were consumed, or 5 min had elapsed. Entry into an arm previously chosen was counted as an error. […] […] Thirty min after dosing of vehicle or MK-801, rats were placed on the maze. Data were indicated as the mean ± SEM in the testing session.
# AMPA-R = experiment: Ca2+ influx assay using rat primary hippocampal neurons; assay type: cell-based
# Procedure: Ca^2+ influx assay using primary neurons was performed as previously described. After 5 days of culture, the cells plated on poly-D-lysine coated 96-well plates (Corning Incorporated) at 2 × 10^4 or 5 × 10^4 cells/well were used for experiments with PF-04958242 or TAK-653, respectively. Fluorescent calcium indicator dye solution (Calcium4 assay Kit, Dojindo, Kumamoto, Japan) in Ca^2+ reaction buffer (DMEM, HEPES and BSA) containing Probenecid (Dojindo) was added and incubated for 60 min in 5% CO2 at 37 °C. After washing once, the relative increases in intracellular Ca^2+ levels stimulated by compounds in the presence and absence of AMPA were monitored. Details are described in the Supplementary Information.
# Primary cultures of hippocampal neuronal cells were prepared from fetal Sprague-Dawley rats at 19 days of gestation. Rat embryos were decapitated and their whole brains were isolated. Hippocampi were dissected in ice-cold Hanks' Balanced Salt Solutions (HBSS) under a microscope and then dispersed into cells using a neural cell dispersion kit (Sumitomo Bakelite Co., Ltd., Tokyo, Japan). The dissociated cells were suspended in Neurobasal medium containing B27 supplement (Thermo Fisher Scientific Inc.), 2 mM L-glutamine (Lonza, Basel, Switzerland), 100 U/mL penicillin (Lonza), 100 μg/mL streptomycin (Lonza) and 20 μg/mL gentamicin sulfate (Lonza). The cells were plated on poly-D-lysine coated 96-well plates (Corning Incorporated) for Ca^2+ influx assay or on poly-L-lysine coated 96-well plates (Sumitomo Bakelite) for measurement of BDNF protein levels and cultured in a humidified CO2 incubator with 5% CO2 at 37°C.
# After 5 days of culture, the cells at 2×10^4 or 5×10^4 cells/well were used for experiments with PF-04958242 or TAK-653, respectively. For TAK-653, after removal of culture medium, 75 µL of fluorescent calcium indicator dye solution (Calcium4 assay Kit, Dojindo, Kumamoto, Japan) in Ca^2+ reaction buffer (DMEM, 10 mM HEPES and 0.1% BSA) containing 1.25 mM Probenecid (Dojindo) was added and incubated for 60 min in 5% CO2 at 37°C and washed once using 75 µL of fluorescent calcium indicator dye solution. After addition of 75 µL of fluorescent calcium indicator dye solution to each well again, the relative increases in intracellular Ca^2+ levels by compounds in the presence and absence of 5 μM AMPA were monitored for 8.5 min by fluorometric imaging plate reader. Activity of the compound was defined as fluorescence intensity integrated over the entire period of measurement. Intensity of 0% was defined as activity in the presence of only DMSO, while 100% was defined as activity in the presence of 5 μM AMPA and 10 μM HBT1. For PF-04958242, after removal of culture medium, 90 µL of fluorescent calcium indicator dye solution (Calcium4 assay Kit, Dojindo) in Ca^2+ reaction buffer (DMEM, 20 mM HEPES and 0.1% BSA) containing 2.5 mM Probenecid (Dojindo) was added and incubated for 60 min in 5% CO2 at 37°C. After addition of 90 µL of fluorescent calcium indicator dye solution to each well again, the relative increases in intracellular Ca^2+ levels by compounds in the presence and absence of 1 μM AMPA were monitored for 2 min in a microplate reader (CellLux, PerkinElmer, Waltham, MA, USA). Activity of the compound was defined as fluorescence intensity integrated over the entire period of measurement. 100% was defined as activity in the presence of 1 μM AMPA and 10 μM HBT1, while intensity of 0% was defined as activity in the presence of 1 μM AMPA or only DMSO for potentiator effect or agonistic effect, respectively. EC50 values were calculated by logistic regression analysis.
# naïve rats = experiment: Novel object recognition (NOR) test; assay type: in vivo, rat; details: p.o., rats
# Procedure: NOR tests were performed using male Long-Evans rats at 6 weeks old as previously described, with some modifications. On day 1, rats were allowed to habituate to the empty test box (a gray-colored polyvinyl chloride box (40 × 40 × 50 cm)) for 10 min individually. Testing comprised two 3-min trials called the acquisition trial and the retention trial that were separated by 48 h inter-trial intervals (ITIs). On day 2, in the acquisition trial, rats were allowed to explore two identical objects (A1 and A2) for 3 min. On day 4, in the retention trial, rats were again allowed to explore a familiar object (A3) and a novel object (B) for 3 min. The object exploration was defined as rats' licking, sniffing or touching the object with forelimbs while sniffing. TAK-653 or AMPA was orally or intraperitoneally, respectively, 2 h or 0.5 h prior to the acquisition and the retention trials. The NDI was calculated using the following equation: novel object interaction/total interaction × 100 (%).
compound,measurement,setting,value
"CC(C)S(=O)(=O)N[C@H]1COC[C@H]1Oc1ccc(-c2ccc(C#N)s2)cc1 [PF-04958242, N-{(3S,4S)-4-[4-(5-cyano-2-thienyl)phenoxy]tetrahydrofuran-3-yl}propane-2-sulfonamide]",Working memory in the RAM test,[1],did not improve
same,Agonistic effect: Ca2+ increase in the absence of AMPA,AMPA-R,potently produced a Ca^2+ increase in the absence of AMPA
same,Dose improving visual learning and memory in NOR test,naïve rats,≥ 0.1 mg/kg
